Activity calls are given as the source filed them. The calls are words filed in the database; no cut-off is given here.
Assays:
[1] = tested on: A549; assay: Antiproliferative activity against human A549 cells measured after 72 hrs by MTT assay; format: functional, cell-based; conditions: A549, 72 h
[2] = tested on: MCF7; assay: Antiproliferative activity against human MCF7 cells measured after 72 hrs by MTT assay; format: functional, cell-based; conditions: MCF7, 72 h
[3] = tested on: SGC-7901; assay: Antiproliferative activity against human SGC-7901 cells measured after 72 hrs by MTT assay; format: functional, cell-based; conditions: SGC-7901, 72 h
[4] = tested on: 4T1; assay: Antitumor activity against mouse 4T1 cells xenografted in BALB/c mouse model assessed as tumor growth inhibition rate at 10 mg/kg, iv measured every two days for 2 weeks relative to control; format: functional; conditions: 4T1, 336 h, read-out: TGI
[5] = molecular target: Tubulin (Homo sapiens) (UniProt P68371+Q9H4B7+P0DPH7+P68366+Q13509+Q71U36+P04350+Q3ZCM7+P07437+P68363+Q9BQE3+Q6PEY2+Q13885+Q9BVA1+Q9BUF5); assay: Inhibition of tubulin polymerization (unknown origin) at 3 uM measured every 60 secs for 90 mins by microplate reader based analysis; format: protein-complex assay
[6] = tested on: MCF7; assay: Induction of cell cycle arrest in human MCF7 cells assessed as accumulation of cells at G0/G1 phase at 30 nM incubated for 24 hrs by PI staining based flow cytometry analysis (reference value: 69.67%); format: functional
[7] = tested on: MCF7; assay: Induction of cell cycle arrest in human MCF7 cells assessed as accumulation of cells at G2/M phase at 30 nM incubated for 24 hrs by PI staining based flow cytometry analysis (reference value: 14.36%); format: functional
[8] = tested on: MCF7; assay: Induction of cell cycle arrest in human MCF7 cells assessed as accumulation of cells at S phase at 15 nM incubated for 24 hrs by PI staining based flow cytometry analysis (reference value: 14.58 %); format: functional
[9] = tested on: MCF7; assay: Induction of cell cycle arrest in human MCF7 cells assessed as accumulation of cells at G2/M phase at 15 nM incubated for 24 hrs by PI staining based flow cytometry analysis (reference value: 14.36%); format: functional
[10] = tested on: MCF7; assay: Induction of cell cycle arrest in human MCF7 cells assessed as accumulation of cells at G0/G1 phase at 15 nM incubated for 24 hrs by PI staining based flow cytometry analysis (reference value: 69.67%); format: functional
[11] = tested on: MCF7; assay: Induction of cell cycle arrest in human MCF7 cells assessed as accumulation of cells at S phase at 30 nM incubated for 24 hrs by PI staining based flow cytometry analysis (reference value: 14.58%); format: functional

Structure (SMILES)	IC50 [1] [µM]	IC50 [2] [µM]	IC50 [3] [µM]	also measured
COc1cc(-n2nnc3ccc(-c4cccc(C)c4)cc32)cc(OC)c1OC	2.45	0.212	0.412	–
COc1cc(-n2nnc3ccc(-c4ccccc4)cc32)cc(OC)c1OC	1.99	0.242	1.82	–
COc1cc(-n2nnc3ccc(-c4ccc(C(F)(F)F)cc4)cc32)cc(OC)c1OC	5.07	3.39	6.61	–
CCOc1ccc(-c2ccc3nnn(-c4cc(OC)c(OC)c(OC)c4)c3c2)cc1	2.69	8.25	> 10	–
COc1cc(-n2nnc3ccc(-c4ccc(C(C)=O)cc4)cc32)cc(OC)c1OC	2.57	3.09	4.85	–
COc1ccccc1-c1ccc2nnn(-c3cc(OC)c(OC)c(OC)c3)c2c1	6.5	3.27	1.97	–
COc1cc(-n2nnc3ccc(-c4ccc(C)cc4F)cc32)cc(OC)c1OC	1.07	0.092	0.893	–
COc1ccc(-c2ccc3nnn(-c4cc(OC)c(OC)c(OC)c4)c3c2)cc1	1.4	0.212	0.447	–
COc1cc(-n2nnc3ccc(-c4ccc(C)cc4)cc32)cc(OC)c1OC	1.4	0.33	0.529	–
COc1cc(-n2nnc3ccc(-c4cccc(F)c4)cc32)cc(OC)c1OC	7.25	7.49	2.98	–
COc1ccc(-c2ccc3ncn(-c4cc(OC)c(OC)c(OC)c4)c3c2)cc1O	0.21	0.042	0.045	–
COc1cc(-n2nnc3ccc(-c4cccc([N+](=O)[O-])c4)cc32)cc(OC)c1OC	1.94	3.8	6.67	–
COc1cc(-n2nnc3ccc(-c4ccc(Cl)cc4Cl)cc32)cc(OC)c1OC	> 10	6.57	2.84	–
COc1cc(-n2nnc3ccc(-c4ccc([N+](=O)[O-])cc4)cc32)cc(OC)c1OC	> 10	3.1	3.17	–
COc1ccc(-c2ccc3nnn(-c4ccc(OC)c(OC)c4)c3c2)cc1O	3.93	0.346	0.188	–
COc1cc(OC)cc(-n2nnc3ccc(-c4ccc(OC)c(O)c4)cc32)c1	6.46	0.726	1.07	–
COc1cc(-n2nnc3ccc(-c4ccc(F)cc4)cc32)cc(OC)c1OC	2.15	1.25	0.789	–
COc1cc(-n2nnc3ccc(-c4ccc(O)cc4)cc32)cc(OC)c1OC	5.11	1.3	4.24	–
COc1cc(-n2nnc3ccc(-c4cccc(O)c4)cc32)cc(OC)c1OC	3.53	0.257	1.2	–
CC(=O)O[C@H]1C(=O)[C@@]2(C)[C@H]([C@H](OC(=O)c3ccccc3)[C@]3(O)C[C@H](OC(=O)[C@H](O)[C@@H](NC(=O)c4ccccc4)c4ccccc4)C(C)=C1C3(C)C)[C@]1(OC(C)=O)CO[C@@H]1C[C@@H]2O [PACLITAXEL]	–	–	–	inhibition in vivo at 10 mg/kg [4]: 72.1%; inhibition [5]: inactive
COc1cc2c(c(OC)c1OC)-c1ccc(OC)c(=O)cc1[C@@H](NC(C)=O)CC2 [COLCHICINE]	–	0.03	0.012	Activity [6]: 8.87%; Activity [7]: 63.44%; Activity [8]: 24.77%; Activity [9]: 35.05%; Activity [10]: 37.19%; Activity [11]: 28.2%
COc1cc(-c2ccc3nnn(-c4cc(OC)c(OC)c(OC)c4)c3c2)cc(OC)c1OC	4.79	> 10	> 10	–
COc1cc(-n2nnc3ccc(-c4ccc(Cl)cc4)cc32)cc(OC)c1OC	3.75	1.52	1.46	–
COc1cccc(-c2ccc3nnn(-c4cc(OC)c(OC)c(OC)c4)c3c2)c1	6.85	3.28	8.12	–
COc1cc(-n2nnc3ccc(-c4cccc(Cl)c4)cc32)cc(OC)c1OC	4.5	2.28	1.48	–
COc1cc(-n2nnc3ccc(-c4ccccc4Cl)cc32)cc(OC)c1OC	9.56	8.36	6.34	–

Source: ChEMBL document CHEMBL5500332, “Structure-based approaches for the design of 6-aryl-1-(3,4,5-trimethoxyphenyl)-1H-benzo[d][1,2,3]triazoles as tubulin polymerization inhibitors” (Eur J Med Chem, 2024)
